pIC50: −log10 of the molar value. Where a name gives a salt, the structure may show the parent alone.

Usually melting point stands for the temperature, or range, at which the solid turns liquid.

The first data set deals with T1, chymase extracted from a dog cardiac tissue (Canis lupus familiaris, UniProt P21842).
T1 construct: a heart is enucleated, and left ventricle is separated; from tissue; host or cells: beagle heart, left ventricle
T1 sequence (P21842 22-249): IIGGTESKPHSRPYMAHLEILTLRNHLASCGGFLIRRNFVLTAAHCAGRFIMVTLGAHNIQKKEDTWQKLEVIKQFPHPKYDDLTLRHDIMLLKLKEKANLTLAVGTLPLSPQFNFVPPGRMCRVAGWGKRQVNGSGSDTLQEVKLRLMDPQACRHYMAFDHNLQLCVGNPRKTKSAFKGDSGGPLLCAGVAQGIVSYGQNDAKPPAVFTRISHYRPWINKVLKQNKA
Briefly: Chymase inhibitory effect (liberation of His-Leu from angiotensin I, fluorescence intensity). It counts as biochemical. The note with it: angiotensin I substrate, 37° C. for one hour, pH 8 reaction buffer; read-out: IC50 (concentration required to inhibit the chymase enzymatic activity by 50%). The source says: Chymase (enzyme) causes angiotensin I (substrate) to liberate a dipeptide (His-Leu) by the enzyme reaction with the substrate. It was reported that an enzymatic activity of chymase can be measured by measuring fluorescence intensity of the resulting peptide (Biochem. Biophys. Res. Com., 149 (3) 1186 (1987)). Since drugs having chymase inhibitory activities suppress this liberation of the dipeptide, the chymase inhibitory activities of the drugs can be measured by measuring fluorescence intensity. In the present pharmacological test, chymase inhibitory effects of the present compounds were studied by using chymase extracted from a dog cardiac tissue (J. Biol. Chem., 265 (36), 22348 (1990)).
1. A beagle is killed by drawing blood under Nembutal anesthesia, a heart is enucleated, and left ventricle is separated.
2. This left ventricle is finely minced, and the tissue weight is measured.
3. A 0.02 M Tris-HCl buffer (pH 7.4) is added to the tissue in an amount of 10 times by volume the tissue weight. This mixture is homogenized at 8,000 rpm for 20 seconds and then centrifuged at 4° C. and 21,000 rpm for 30 minutes, and the resulting supernatant is discarded.
4. The same procedure as the above 3 is repeated twice for the residue. Then, a 0.02 M Tris-HCl buffer (pH 7.4) containing 1% Triton X-100 and 0.01 M potassium chloride is added to the residue in an amount of 10 times by volume the amount of the residue. This mixture is homogenized at 8,000 rpm for 20 seconds, then incubated at 4° C. for one hour and centrifuged at 21,000 rpm for 30 minutes, and the supernatant is discarded.
5. A 0.02 M Tris-HCl buffer (pH 7.4) containing 1% Triton X-100 and 0.5 M potassium chloride is added to the residue in an amount of 10 times by volume the amount of the residue. This mixture is homogenized at 8,000 rpm for 20 seconds, then incubated at 4° C. for one hour and centrifuged at 21,000 rpm for 30 minutes, and the supernatant is discarded.
6. A 0.02 M Tris-HCl buffer (pH 7.4) containing 1% Triton X-100 and 2.0 M potassium chloride is added to the residue in an amount of 10 times the amount of the residue. This mixture is homogenized at 8,000 rpm for 20 seconds, then incubated at 4° C. for one hour and centrifuged at 21,000 rpm for 30 minutes. The obtained supernatant is used as a chymase enzyme solution.
Tris-HCl and disodium ethylenediaminetetraacetate are dissolved in water so that their concentrations are 92.3 mM and 12.0 mM respectively to prepare a reaction buffer adjusted to pH 8.
Angiotensin I is dissolved in water to prepare a 1.54 mM substrate solution.
A test compound is dissolved in dimethyl sulfoxide to prepare 3.0×10^−3 M, 3.0×10^−4 M, 3.0×10^−5 M and 3.0×10^−6 M test com solutions.
1. The reaction buffer (32.5 μl), the substrate solution (75.0 μl), the chymase enzyme solution (37.5 μl) and the test compound solution (5 μl) are mixed.
2. The obtained mixture is incubated at 37° C. for one hour.
3. To the mixture is added 15% trichloroacetic acid (225 μl), and the whole is centrifuged at 4° C. and 14,000 rpm for five minutes.
4. The supernatant is taken out. A 1% orthophthalaldehyde/methanol solution (165 μl) is added to 300 μl of this supernatant, and the whole is stirred and allowed to stand at room temperature for 10 minutes.
5. 1.5 M Hydrochloric acid (300 μl) is added to the resulting mixture, and the whole is stirred and centrifuged at 4° C. and 14,000 rpm for two minutes.
6. The supernatant is taken out and irradiated with light having a wavelength of 340 nm, and fluorescence intensity is measured at a wavelength of 455 nm.
The blank of this test is defined as follows. The same procedures as in the above 1 to 6 are repeated provided that a 20 mM Tris-HCl buffer (pH 7.4, 37.5 μl) containing 1% Triton X-100 and 2.0 M potassium chloride is used instead of the chymase enzyme solution (37.5 μl), and dimethyl sulfoxide (5 μl) is used instead of the test compound solution (5 μl) in the above 1. The obtained […] is the blank value. […]
As for `COCC(=O)N[C@H](C(=O)N1CSC[C@H]1C(=O)N[C@@H](Cc1ccccc1)C(=O)C(=O)OC(C)C)C(C)C` [Compound No. 2-19, Isopropyl (3S)-3-[(4R)-3-[(2S)-2-[(methoxymethyl)carbonyl]amino-3-methyl-1-oxobutyl]-1,3-thiazolidin-4-ylcarboxamido]-2-oxo-4-phenylbutyrate], the pIC50 is 7.25.

As to `CC(C)OC(=O)C(=O)[C@H](Cc1ccccc1)NC(=O)[C@@H]1CSCN1C(=O)[C@@H](NC(=O)COc1ccccc1)C(C)C` [Compound No. 2-20, Isopropyl (3S)-3-[(4R)-3-[(2S)-3-methyl-1-oxo-2-[[(phenoxylmethyl)carbonyl]amino]butyl]-1,3-thiazolidin-4-ylcarboxamido]-2-oxo-4-phenylbutyrate], the pIC50 was 7.36.

Take `CC(C)OC(=O)C(=O)[C@H](Cc1ccccc1)NC(=O)[C@@H]1CSCN1C(=O)[C@@H](NC(=O)OC(C)(C)C)C(C)C` [Compound No. 2-21, Isopropyl (3S)-3-[(4R)-3-[(2S)-2-(tert-butoxycarbonyl)amino-3-methyl-1-oxobutyl]-1,3-thiazolidin-4-ylcarboxamido]-2-oxo-4-phenylbutyrate]: the pIC50 was 7.59.

As to `CC(C)OC(=O)C(=O)[C@H](Cc1ccccc1)NC(=O)[C@@H]1CSCN1C(=O)[C@@H](NC(=O)N(C)CCNC(=O)OC(C)(C)C)C(C)C` [Compound No. 2-26, Isopropyl (3S)-3-[(4R)-3-[(2S)-2-[[N-[2-[(tert-butoxycarbonyl)amino]ethyl]-N-methylamino]carbonyl]amino-3-methyl-1-oxobutyl]-1,3-thiazolidin-4-ylcarboxamido]-2-oxo-4-phenylbutyrate], the pIC50 is 7.92. With `CC(C)OC(=O)C(=O)[C@H](Cc1ccccc1)NC(=O)[C@@H]1CSCN1C(=O)[C@@H](NC(=O)N(C)Cc1ccccc1)C(C)C` [Compound No. 2-25, Isopropyl (3S)-3-[(4R)-3-[(2S)-3-methyl-2-[[N-methyl-N-(phenylmethyl)amino]carbonyl]amino-1-oxobutyl]-1,3-thiazolidin-4-ylcarboxamido]-2-oxo-4-phenylbutyrate], the pIC50 is 7.51.

For the molecule `CC(C)OC(=O)C(=O)[C@H](Cc1ccccc1)NC(=O)[C@@H]1CSC(c2ccccc2)N1C(=O)[C@@H](NC(=O)N(C)CCN)C(C)C` (mixture of isomers) [Compound No. 6-2, Isopropyl (3S)-3-[(2RS,4R)-3-[(2S)-2-[[N-(2-aminoethyl)-N-methylamino]carbonyl]amino]-3-methyl-1-oxobutyl]-2-phenyl-1,3-thiazolidin-4-ylcarboxamidol-2-oxo-4-phenylbutyrate hydrochloride], the pIC50 is 7.24. For the molecule `CC(C)[C@H](NC(=O)OCc1ccccc1)C(=O)N1CSC[C@H]1C(=O)N[C@@H](Cc1ccccc1)C(=O)C(=O)OCc1ccccc1` [Compound No. 2-37, Phenylmethyl (3S)-3-[(4R)-3-[(2S)-3-methyl-1-oxo-2-[[(phenylmethoxy)carbonyl]amino]butyl]-1,3-thiazolidin-4-ylcarboxamido]-2-oxo-4-phenylbutyrate], the pIC50 is 7.18. Turning to `CC(C)OC(=O)C(=O)[C@H](Cc1ccccc1)NC(=O)[C@@H]1CSCN1C(=O)[C@@H](NC(=O)OCc1ccccc1)C(C)C` [Compound No. 2-1, Isopropyl (3S)-3-[(4R)-3-[(2S)-3-methyl-1-oxo-2-[[(phenylmethoxy)carbonyl]amino]butyl]-1,3-thiazolidin-4-ylcarboxamido]-2-oxo-4-phenylbutyrate], the pIC50 was 7.33.

Tested on in the next data set: not given
Test: not given
Details: not given
In the case of `CC(C)OC(=O)C(=O)[C@H](Cc1ccccc1)NC(=O)[C@@H]1CSC(c2ccccc2)N1C(=O)[C@@H](NC(=O)N(C)CCN)C(C)C` (mixture of isomers) (as salt: hydrochloride) [Compound No. 6-2, Isopropyl (3S)-3-[(2RS,4R)-3-[(2S)-2-[[N-(2-aminoethyl)-N-methylamino]carbonyl]amino]-3-methyl-1-oxobutyl]-2-phenyl-1,3-thiazolidin-4-ylcarboxamidol-2-oxo-4-phenylbutyrate hydrochloride], the melting point was determined as 90 °C.

For the origin of these results see patent US6410576B1, “Thiazolidine derivatives” (Santen Pharmaceutical Co., Ltd., priority 1998, dated 2002).
